Assay results as given in the supplement of paper PMC11061612.

Key:
Assay in all cases: Bliss excess, mean over the matrix (fraction); higher = more synergy
[1] = test system: VMRC-RCZ (Kidney Carcinoma)
In short: (§1)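 Cell lines grown in DMEM/F12 or RPMI with 10% FBS were plated in 1536-well plates and held 24 hours at 37°C, 5% CO2 before 72 hours of exposure to two-drug dose matrices, with DMSO typically at 0.2%. CellTiter-Glo 2.0 luminescence gave viability, which was converted to inhibition. Vehicle wells were set to 0 and blank wells to 1. Combination Emax is the second-highest inhibition in the matrix, and Bliss excess is the observed combination effect minus the expected EA + EB − EA·EB, where EA and EB are the single-agent effects.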

[2] = test system: M059J (Glioblastoma)
In short: as §1

[3] = test system: MN-60 (B-Lymphoblastic Leukemia)
In short: as §1

[4] = test system: H9 (T-Cell Non-Hodgkin's Lymphoma)
In short: as §1

[5] = test system: RD (Rhabdomyosarcoma)
In short: as §1

[6] = test system: T-T (Esophageal Squamous Cell Carcinoma)
In short: as §1

[7] = test system: JHH-4 (Hepatocellular Carcinoma)
In short: as §1

[8] = test system: COR-L279 (Small Cell Lung Carcinoma)
In short: as §1

[9] = test system: MOLM-13 (Acute Myeloid Leukemia)
In short: as §1

[10] = test system: SU-DHL-5 (B-Cell Non-Hodgkin's Lymphoma)
In short: as §1

[11] = test system: KU812 (Chronic Myelogenous Leukemia)
In short: as §1

[12] = test system: SK-GT-4 (Esophageal Adenocarcinoma)
In short: as §1

[13] = test system: HCC1419 (Breast Carcinoma)
In short: as §1

[14] = test system: KYSE-270 (Esophageal Squamous Cell Carcinoma)
In short: as §1

[15] = test system: NCCIT (Other Solid Carcinomas)
In short: as §1

[16] = test system: RPMI-8226 (Plasma Cell Myeloma)
In short: as §1

[17] = test system: DAN-G (Pancreatic Carcinoma)
In short: as §1

[18] = test system: MOG-G-CCM (Low Grade Glioma)
In short: as §1

[19] = test system: SJSA-1 (Osteosarcoma)
In short: as §1

[20] = test system: DMS-114 (Small Cell Lung Carcinoma)
In short: as §1

Compound	Bliss excess [1]	Bliss excess [2]	Bliss excess [3]	Bliss excess [4]	Bliss excess [5]	Bliss excess [6]	Bliss excess [7]	Bliss excess [8]	Bliss excess [9]	Bliss excess [10]	Bliss excess [11]	Bliss excess [12]	Bliss excess [13]	Bliss excess [14]	Bliss excess [15]	Bliss excess [16]	Bliss excess [17]	Bliss excess [18]	Bliss excess [19]	Bliss excess [20]
CC(=O)Nc1cccc(-n2c(=O)n(C3CC3)c(=O)c3c(Nc4ccc(I)cc4F)n(C)c(=O)c(C)c32)c1 [Trametinib] + Cc1nc(-c2cn3c(n2)-c2ccc(-c4cnn(C(C)(C)C(N)=O)c4)cc2OCC3)n(C(C)C)n1 [Taselisib] (first compound max 1 µM, 7x7, partner max 10 µM)	0.0186	0.0493	0.0265	0.0402	0.261	0.245	0.0462	-0.0486	0.215	0.0452	0.111	0.103	0.032	0.176	0.0184	0.25	0.124	0.0182	0.0501	0.079
CC1(C)CCC(CN2CCN(c3ccc(C(=O)NS(=O)(=O)c4ccc(NCC5CCOCC5)c([N+](=O)[O-])c4)c(Oc4cnc5[nH]ccc5c4)c3)CC2)=C(c2ccc(Cl)cc2)C1 [Venetoclax] + C1CN(CCC1(C(=O)N[C@@H](CCO)C2=CC=C(C=C2)Cl)N)C3=NC=NC4=C3C=CN4 [Capivasertib] (first compound max 1 µM, 7x7, partner max 3 µM)	-0.0236	0.0099	-0.0485	-0.02	-0.0226	0.0155	-0.054	0.0055	0.0074	-0.0236	-0.046	-0.0728	-0.057	0.0002	-0.0285	-0.0102	-0.0689	-0.0568	-0.0509	-0.0467
CC1(C)CCC(CN2CCN(c3ccc(C(=O)NS(=O)(=O)c4ccc(NCC5CCOCC5)c([N+](=O)[O-])c4)c(Oc4cnc5[nH]ccc5c4)c3)CC2)=C(c2ccc(Cl)cc2)C1 [Venetoclax] + C=CCn1c(=O)c2cnc(Nc3ccc(N4CCN(C)CC4)cc3)nc2n1-c1cccc(C(C)(C)O)n1 [AZD1775] (first compound max 1 µM, partner max 1 µM)	0.0418	-0.0663	-0.0285	-0.0295	-0.0163	0.0832	-0.0538	-0.0349	0.0122	-0.0814	0.0294	0.0384	-0.0261	0.0742	0.0522	0.0368	-0.0114	0.0303	-0.0733	0.0056
CC1(C)CCC(CN2CCN(c3ccc(C(=O)NS(=O)(=O)c4ccc(NCC5CCOCC5)c([N+](=O)[O-])c4)c(Oc4cnc5[nH]ccc5c4)c3)CC2)=C(c2ccc(Cl)cc2)C1 [Venetoclax] + CCN(CCO)CCCOc1ccc2c(Nc3cc(CC(=O)Nc4cccc(F)c4)[nH]n3)ncnc2c1 [AZD2811] (first compound max 1 µM, 7x7, partner max 1 µM)	-0.0391	-0.0687	-0.0927	-0.0616	-0.0311	0.0158	-0.0152	0.0501	0.0626	-0.125	-0.0433	-0.0295	-0.0448	-0.0072	0.0139	0.0361	-0.0106	-0.0061	-0.0214	-0.0334
CC1(C)CCC(CN2CCN(c3ccc(C(=O)NS(=O)(=O)c4ccc(NCC5CCOCC5)c([N+](=O)[O-])c4)c(Oc4cnc5[nH]ccc5c4)c3)CC2)=C(c2ccc(Cl)cc2)C1 [Venetoclax] + CN(C)CCCOc1ccc(-c2ccc3ncc4c(c3c2)n(C2CCOCC2)c(=O)n4C)cn1 [AZD0156] (first compound max 1 µM, 7x7, partner max 1 µM)	-0.0492	-0.0173	-0.0045	-0.0035	-0.0332	0.0197	-0.0078	0.0043	-0.126	0.0045	-0.0404	-0.0544	-0.0156	0.0107	0.0086	0.0405	-0.0268	-0.0198	-0.0358	-0.0436
CC1(C)CCC(CN2CCN(c3ccc(C(=O)NS(=O)(=O)c4ccc(NCC5CCOCC5)c([N+](=O)[O-])c4)c(Oc4cnc5[nH]ccc5c4)c3)CC2)=C(c2ccc(Cl)cc2)C1 [Venetoclax] + COc1cc(Nc2ncc3c(n2)-c2ccc(Cl)cc2C(c2c(F)cccc2OC)=NC3)ccc1C(=O)O [Alisertib] (first compound max 1 µM, 7x7, partner max 10 µM)	-0.0292	0.0401	0.0368	-0.0674	0.0506	0.0325	-0.0328	0.103	0.0371	-0.003	-0.0121	-0.107	-0.0573	-0.016	0.0159	0.0721	-0.0024	0.0552	-0.0583	0.0341
CC1(C)CCC(CN2CCN(c3ccc(C(=O)NS(=O)(=O)c4ccc(NCC5CCOCC5)c([N+](=O)[O-])c4)c(Oc4cnc5[nH]ccc5c4)c3)CC2)=C(c2ccc(Cl)cc2)C1 [Venetoclax] + C[C@@H]1COCCN1C2=NC(=NC(=C2)C3(CC3)[S@](=N)(=O)C)C4=C5C=CNC5=NC=C4 [AZD6738] (first compound max 1 µM, 7x7, partner max 10 µM)	-0.0262	-0.0258	0.0434	0.0113	0.002	-0.0286	-0.0399	0.0287	0.0068	-0.0214	-0.0055	-0.0364	-0.0479	-0.0188	-0.0355	0.0142	-0.0536	-0.045	-0.0447	-0.0338
CC1(C)CCC(CN2CCN(c3ccc(C(=O)NS(=O)(=O)c4ccc(NCC5CCOCC5)c([N+](=O)[O-])c4)c(Oc4cnc5[nH]ccc5c4)c3)CC2)=C(c2ccc(Cl)cc2)C1 [Venetoclax] + C[C@@H](Nc1cc(F)cc(F)c1)c1cc(C(=O)N(C)C)cc2c(=O)cc(N3CCOCC3)oc12 [AZD8186] (first compound max 1 µM, 7x7, partner max 3 µM)	-0.0215	-0.0141	0.044	-0.0159	0.0032	0.0094	0.0064	0.0138	0.0046	0.0358	-0.024	-0.0263	-0.0316	-0.0186	-0.0336	0.037	-0.0346	0.0384	-0.0247	-0.0297
CC1(C)CCC(CN2CCN(c3ccc(C(=O)NS(=O)(=O)c4ccc(NCC5CCOCC5)c([N+](=O)[O-])c4)c(Oc4cnc5[nH]ccc5c4)c3)CC2)=C(c2ccc(Cl)cc2)C1 [Venetoclax] + Cc1cc2ncnn2cc1Nc1ncc2c(n1)n(C1CCOCC1)c(=O)n2C [AZD7648] (first compound max 1 µM, 7x7, partner max 10 µM)	-0.0696	-0.0144	-0.0125	-0.0194	-0.0373	0.0109	-0.0059	-0.0405	0.0014	-0.0362	-0.0174	-0.093	-0.0116	-0.0281	-0.0326	0.0285	-0.0106	-0.0528	-0.0404	-0.0205
CC1(C)CCC(CN2CCN(c3ccc(C(=O)NS(=O)(=O)c4ccc(NCC5CCOCC5)c([N+](=O)[O-])c4)c(Oc4cnc5[nH]ccc5c4)c3)CC2)=C(c2ccc(Cl)cc2)C1 [Venetoclax] + Cn1cnc2c(F)c(Nc3ccc(Br)cc3Cl)c(C(=O)NOCCO)cc21 [Selumetinib] (first compound max 1 µM, 7x7, partner max 3 µM)	-0.0422	-0.0391	-0.0478	0.0054	-0.0425	0.009	-0.0402	0.0007	0.0783	0.0355	-0.0125	-0.0512	-0.0413	-0.0202	-0.0252	0.0187	-0.0459	-0.0697	-0.0431	-0.0371
